PubChem BioAssay (NCI)
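In this assay, cells in 96-well plates receive the compound at five concentrations for 48 hours. Endpoints are linearly interpolated between the surrounding concentrations. Abbreviation: GI50, concentration required for 50% inhibition of growth. TGI marks complete inhibition of growth.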

Legend:
Test in all cases: DTP human tumour cell line panel, 48 h
786-0 renal = tested on: 786-0 renal
A498 renal = tested on: A498 renal
A549 NSCLC = tested on: A549 NSCLC
ACHN renal = tested on: ACHN renal
BT-549 breast = tested on: BT-549 breast
CAKI-1 renal = tested on: CAKI-1 renal
CCRF-CEM leukemia = tested on: CCRF-CEM leukemia
COLO 205 colon = tested on: COLO 205 colon
DU-145 prostate = tested on: DU-145 prostate
EKVX NSCLC = tested on: EKVX NSCLC
HCC-2998 colon = tested on: HCC-2998 colon
HCT-116 colon = tested on: HCT-116 colon
HCT-15 colon = tested on: HCT-15 colon
HL-60(TB) leukemia = tested on: HL-60(TB) leukemia
HOP-62 NSCLC = tested on: HOP-62 NSCLC
HOP-92 NSCLC = tested on: HOP-92 NSCLC
HS 578T breast = tested on: HS 578T breast
HT29 colon = tested on: HT29 colon
IGROV1 ovarian = tested on: IGROV1 ovarian
K-562 leukemia = tested on: K-562 leukemia
KM12 colon = tested on: KM12 colon
M14 melanoma = tested on: M14 melanoma
MALME-3M melanoma = tested on: MALME-3M melanoma
MCF7 breast = tested on: MCF7 breast
MDA-MB-231 breast = tested on: MDA-MB-231 breast
MDA-MB-435 = tested on: MDA-MB-435
MOLT-4 leukemia = tested on: MOLT-4 leukemia
NCI-H226 lung = tested on: NCI-H226 lung
NCI-H23 lung = tested on: NCI-H23 lung
NCI-H460 lung = tested on: NCI-H460 lung
NCI-H522 lung = tested on: NCI-H522 lung
NCI/ADR-RES ovarian = tested on: NCI/ADR-RES ovarian
OVCAR-3 ovarian = tested on: OVCAR-3 ovarian
OVCAR-4 ovarian = tested on: OVCAR-4 ovarian
OVCAR-5 ovarian = tested on: OVCAR-5 ovarian
OVCAR-8 ovarian = tested on: OVCAR-8 ovarian
PC-3 prostate = tested on: PC-3 prostate
RPMI-8226 leukemia = tested on: RPMI-8226 leukemia
RXF 393 renal = tested on: RXF 393 renal
SF-268 CNS = tested on: SF-268 CNS
SF-295 CNS = tested on: SF-295 CNS
SF-539 CNS = tested on: SF-539 CNS
SK-MEL-2 melanoma = tested on: SK-MEL-2 melanoma
SK-MEL-28 melanoma = tested on: SK-MEL-28 melanoma
SK-MEL-5 melanoma = tested on: SK-MEL-5 melanoma
SN12C renal = tested on: SN12C renal
SNB-19 CNS = tested on: SNB-19 CNS
SNB-75 CNS = tested on: SNB-75 CNS
SR leukemia = tested on: SR leukemia
SW-620 colon = tested on: SW-620 colon
T-47D breast = tested on: T-47D breast
TK-10 renal = tested on: TK-10 renal
U251 CNS = tested on: U251 CNS
UACC-257 melanoma = tested on: UACC-257 melanoma
UACC-62 melanoma = tested on: UACC-62 melanoma
UO-31 renal = tested on: UO-31 renal
LOX IMVI melanoma = tested on: LOX IMVI melanoma
SK-OV-3 ovarian = tested on: SK-OV-3 ovarian

Work on `CCN(CC)CCNc1ccc(N=Nc2ccc(S(N)(=O)=O)cc2)c2ccccc12` yielded a TGI (786-0 renal) of over 100 µM, a TGI (A498 renal) of 29.7 µM and a TGI (A549 NSCLC) of 40.5 µM. For the same compound, the TGI (ACHN renal) was 38.8 µM, the TGI (BT-549 breast) was 34 µM and the TGI (CAKI-1 renal) was 31.2 µM. The TGI (CCRF-CEM leukemia) was 38.3 µM, the TGI (COLO 205 colon) was over 100 µM and the TGI (DU-145 prostate) was 28.2 µM. The TGI (EKVX NSCLC) was 41.2 µM, the TGI (HCC-2998 colon) was 29.1 µM and the TGI (HCT-116 colon) was over 100 µM. The TGI (HCT-15 colon) was over 100 µM, the TGI (HL-60(TB) leukemia) was 36.9 µM and the TGI (HOP-62 NSCLC) was over 100 µM. The TGI (HOP-92 NSCLC) was 35.9 µM, the TGI (HS 578T breast) was 55.9 µM and the TGI (HT29 colon) was 34.9 µM. It also gave a TGI (IGROV1 ovarian) of 28.8 µM, a TGI (K-562 leukemia) of over 100 µM and a TGI (KM12 colon) of 39 µM. It also gave a TGI (M14 melanoma) of 23.3 µM, a TGI (MALME-3M melanoma) of 36 µM and a TGI (MCF7 breast) of 47 µM. For the same compound, the TGI (MDA-MB-231 breast) was 27.8 µM, the TGI (MDA-MB-435) was 23.6 µM and the TGI (MOLT-4 leukemia) was 25.6 µM. For the same compound, the TGI (NCI-H226 lung) was 72.7 µM, the TGI (NCI-H23 lung) was 50.7 µM and the TGI (NCI-H460 lung) was over 100 µM. It also gave a TGI (NCI-H522 lung) of 32 µM, a TGI (NCI/ADR-RES ovarian) of over 100 µM and a TGI (OVCAR-3 ovarian) of 5.55 µM. It also gave a TGI (OVCAR-4 ovarian) of 30.9 µM, a TGI (OVCAR-5 ovarian) of 88.1 µM and a TGI (OVCAR-8 ovarian) of 21.3 µM. For the same compound, the TGI (PC-3 prostate) was 29.7 µM, the TGI (RPMI-8226 leukemia) was 18.7 µM and the TGI (RXF 393 renal) was 12.7 µM. The TGI (SF-268 CNS) was 37.8 µM, the TGI (SF-295 CNS) was 15.1 µM and the TGI (SF-539 CNS) was 12.8 µM. For the same compound, the TGI (SK-MEL-2 melanoma) was 28.2 µM, the TGI (SK-MEL-28 melanoma) was 28.1 µM and the TGI (SK-MEL-5 melanoma) was 20.3 µM. The TGI (SN12C renal) was 81 µM, the TGI (SNB-19 CNS) was 27.7 µM and the TGI (SNB-75 CNS) was 27 µM. It also gave a TGI (SR leukemia) of 4.94 µM, a TGI (SW-620 colon) of 14.6 µM and a TGI (T-47D breast) of 8.27 µM. The TGI (TK-10 renal) was 40.3 µM, the TGI (U251 CNS) was over 100 µM and the TGI (UACC-257 melanoma) was 31.4 µM. For the same compound, the TGI (UACC-62 melanoma) was 25.7 µM and the TGI (UO-31 renal) was 20.8 µM.

In the case of `CCN(CC)C(=S)SSC1CCCCC1`, the GI50 (786-0 renal) is reported as 19.6 µM, the TGI (786-0 renal) is reported as 35 µM and the GI50 (A498 renal) is reported as 30.8 µM. It also gave a TGI (A498 renal) of over 100 µM, a GI50 (A549 NSCLC) of 30.9 µM and a TGI (A549 NSCLC) of 82.6 µM. It also gave a GI50 (ACHN renal) of 16.6 µM, a TGI (ACHN renal) of 32 µM and a GI50 (BT-549 breast) of 19 µM. It also gave a TGI (BT-549 breast) of 46.5 µM, a GI50 (CAKI-1 renal) of 11.9 µM and a TGI (CAKI-1 renal) of 25.2 µM. The GI50 (CCRF-CEM leukemia) was 5.72 µM, the TGI (CCRF-CEM leukemia) was 58.6 µM and the GI50 (DU-145 prostate) was 20.3 µM. It also gave a TGI (DU-145 prostate) of 45.5 µM, a GI50 (EKVX NSCLC) of 30.5 µM and a TGI (EKVX NSCLC) of 91.2 µM. It also gave a GI50 (HCC-2998 colon) of 19.7 µM, a TGI (HCC-2998 colon) of 41.1 µM and a GI50 (HCT-116 colon) of 12.9 µM. For the same compound, the TGI (HCT-116 colon) was 25.8 µM, the GI50 (HCT-15 colon) was 19.7 µM and the TGI (HCT-15 colon) was 46.4 µM. For the same compound, the GI50 (HL-60(TB) leukemia) was 13.6 µM, the TGI (HL-60(TB) leukemia) was 47.2 µM and the GI50 (HOP-62 NSCLC) was 26.8 µM. The TGI (HOP-62 NSCLC) was 77.9 µM, the GI50 (HOP-92 NSCLC) was 14.3 µM and the TGI (HOP-92 NSCLC) was 40 µM. The GI50 (HS 578T breast) was 27.4 µM, the TGI (HS 578T breast) was 88.2 µM and the GI50 (HT29 colon) was 15.3 µM. For the same compound, the TGI (HT29 colon) was 34.8 µM, the GI50 (IGROV1 ovarian) was 17.2 µM and the TGI (IGROV1 ovarian) was 38.4 µM. The GI50 (K-562 leukemia) was 11.3 µM, the TGI (K-562 leukemia) was 38.8 µM and the GI50 (KM12 colon) was 13 µM. It also gave a TGI (KM12 colon) of 28.8 µM, a GI50 (LOX IMVI melanoma) of 8.6 µM and a TGI (LOX IMVI melanoma) of 24.3 µM. For the same compound, the GI50 (M14 melanoma) was 14.4 µM, the TGI (M14 melanoma) was 30.9 µM and the GI50 (MALME-3M melanoma) was 20.8 µM. It also gave a TGI (MALME-3M melanoma) of 46.3 µM, a GI50 (MCF7 breast) of 14.4 µM and a TGI (MCF7 breast) of 30.4 µM. For the same compound, the GI50 (MDA-MB-231 breast) was 17.3 µM, the TGI (MDA-MB-231 breast) was 37.1 µM and the GI50 (MDA-MB-435) was 15 µM. It also gave a TGI (MDA-MB-435) of 33.1 µM, a GI50 (MOLT-4 leukemia) of 11.4 µM and a TGI (MOLT-4 leukemia) of 43.5 µM. For the same compound, the GI50 (NCI-H226 lung) was 24.7 µM, the TGI (NCI-H226 lung) was 76.1 µM and the GI50 (NCI-H23 lung) was 20.8 µM. It also gave a TGI (NCI-H23 lung) of 48.7 µM, a GI50 (NCI-H460 lung) of 18.3 µM and a TGI (NCI-H460 lung) of 52.7 µM. For the same compound, the GI50 (NCI-H522 lung) was 2.91 µM, the TGI (NCI-H522 lung) was 12.7 µM and the GI50 (NCI/ADR-RES ovarian) was 21.3 µM. For the same compound, the TGI (NCI/ADR-RES ovarian) was 47 µM, the GI50 (OVCAR-4 ovarian) was 15 µM and the TGI (OVCAR-4 ovarian) was 28.4 µM. The GI50 (OVCAR-5 ovarian) was 18.7 µM, the TGI (OVCAR-5 ovarian) was 32.7 µM and the GI50 (OVCAR-8 ovarian) was 15.8 µM. It also gave a TGI (OVCAR-8 ovarian) of 34.9 µM, a GI50 (PC-3 prostate) of 17.8 µM and a TGI (PC-3 prostate) of 42.6 µM. It also gave a GI50 (RPMI-8226 leukemia) of 9.99 µM, a TGI (RPMI-8226 leukemia) of 31.4 µM and a GI50 (RXF 393 renal) of 16.4 µM. For the same compound, the TGI (RXF 393 renal) was 31.2 µM, the GI50 (SF-268 CNS) was 23.1 µM and the TGI (SF-268 CNS) was 60.9 µM. The GI50 (SF-295 CNS) was 17.6 µM, the TGI (SF-295 CNS) was 44.6 µM and the GI50 (SF-539 CNS) was 15.3 µM. The TGI (SF-539 CNS) was 31.7 µM, the GI50 (SK-MEL-2 melanoma) was 26.7 µM and the TGI (SK-MEL-2 melanoma) was 61.2 µM. The GI50 (SK-MEL-28 melanoma) was 19.9 µM, the TGI (SK-MEL-28 melanoma) was 42.2 µM and the GI50 (SK-MEL-5 melanoma) was 12.5 µM. It also gave a TGI (SK-MEL-5 melanoma) of 26.3 µM, a GI50 (SK-OV-3 ovarian) of 31.2 µM and a TGI (SK-OV-3 ovarian) of 75 µM. It also gave a GI50 (SN12C renal) of 15.8 µM, a TGI (SN12C renal) of 31.2 µM and a GI50 (SNB-19 CNS) of 32.6 µM. For the same compound, the TGI (SNB-19 CNS) was over 100 µM, the GI50 (SNB-75 CNS) was 17.5 µM and the TGI (SNB-75 CNS) was 48 µM. It also gave a GI50 (SR leukemia) of 0.0656 µM, a TGI (SR leukemia) of 4.36 µM and a GI50 (SW-620 colon) of 11.7 µM. It also gave a TGI (SW-620 colon) of 26.2 µM, a GI50 (T-47D breast) of 22.2 µM and a TGI (T-47D breast) of 66.4 µM. The GI50 (TK-10 renal) was 18 µM, the TGI (TK-10 renal) was 34.6 µM and the GI50 (U251 CNS) was 14.2 µM. It also gave a TGI (U251 CNS) of 29.1 µM, a GI50 (UACC-257 melanoma) of 22.5 µM and a TGI (UACC-257 melanoma) of 65 µM. The GI50 (UACC-62 melanoma) was 18 µM, the TGI (UACC-62 melanoma) was 42.8 µM and the GI50 (UO-31 renal) was 12.1 µM. The TGI (UO-31 renal) was 25.7 µM.
